This is an account of results in ChEMBL document CHEMBL5154645, “Potent Anti-SARS-CoV-2 Activity by the Natural Product Gallinamide A and Analogues via Inhibition of Cathepsin L” (J Med Chem, 2022).

This experiment deals with SARS-CoV-2. Description: Antiviral activity against SARS-CoV-2 infected in human A549 cells overexpressing ACE2 assessed as reduction in virus-induced cytopathic effect at 625 nM incubated for 1 hr followed by viral infection measured after 96 hrs by inverted microscopy. The format is functional, organism-based. The note with it: Severe acute respiratory syndrome coronavirus 2, time 97.0 hrs.

The source made the active and inactive calls. The calls are words filed in the database; no cut-off is given here.

Regarding `CC[C@H](C)[C@@H](C(=O)O[C@@H](CC(C)C)C(=O)N[C@@H](CC(C)C)C(=O)N[C@@H](C)/C=C/C(=O)N1C(=O)C=C(OC)[C@@H]1C)N(C)C` [GALLINAMIDE A], the result was Active.
